Reference: US10138247B2, “7-(morpholin-4-yl)pyrazole[1,5-A]pyrimidine derivatives as PI3 kinase inhibitors” (priority 2015, dated 2018)
Where two headings read alike, the source gives them in different places.

What was measured:
Format in all cases: biochemical
PI3Kδ = target: T1, PI3Kδ (Homo sapiens, UniProt O00329); assay: PI3K kinases inhibition in vitro (ADP-Glo), PI3Kδ
T1 construct: purchased Merck Millipore
Description: (§1) Tested compounds were dissolved in 100% DMSO, and thus obtained solutions were serially diluted in 1× reaction buffer. Recombinant kinase was diluted in a reaction mixture comprising 5× reaction buffer, substrate (1 mM sodium diacetate 4,5-bisphosphate phosphatydylinositol (PIP2) solution in 40 mM Tris buffer), and water. To the wells in a 96-wells plate, 5 μl of compounds solutions and 15 μl of the kinase solution in the reaction mixture were added. To initiate interaction of tested chemical compounds with the enzyme, the plate was incubated for 10 minutes at suitable temperature in a plate thermostat with orbital shaking at 600 rpm. Negative control wells contained all above reagents except tested compound and kinase, and positive control wells contained all above reagents except tested compounds. Enzymatic reaction was initiated by adding 5 μl of 150 μM ATP solution, subsequently the plate was incubated for 1 hour at 25° C. or 30° C. (depending on PI3K isoform tested) in plate thermostat with orbital shaking of the plate contents at 600 rpm. Reaction conditions are presented below in Table 12.
(§2) Detection of ADP formed in the enzymatic reaction was then performed using ADP-Glo Kinase Assay (Promega). To the wells of a 96-well plate 25 μl of ADP-Glo Reagent were added, and the plate was incubated for 40 minutes at 25° C. in a plate thermostat with orbital shaking at 600 rpm. Then to the wells of 96-well plate 50 μl of Kinase Detection Reagent were added and the plate was incubated for 40 minutes at 25° C. in a plate thermostat with orbital shaking at 600 rpm. After incubation time, luminescence intensity in a well was measured by Victor Light luminometer (Perkin Elmer, Inc.).
(§3) IC50 values were determined on the basis of luminescence intensity measurements in wells containing tested compounds at different concentrations and in control wells. These values were calculated with Graph Pad 5.03 software by fitting the curve using non-linear regression. Each compound was tested at least in quadruplicates (4 wells) on two 96-well plates using at least 4 wells of each of the controls.

PI3Kβ = target: T2, PI3Kβ (Homo sapiens, UniProt P42338); assay: PI3K kinases inhibition in vitro (ADP-Glo), PI3Kβ
T2 construct: purchased Merck Millipore
T2 sequence (P42338 whole entry): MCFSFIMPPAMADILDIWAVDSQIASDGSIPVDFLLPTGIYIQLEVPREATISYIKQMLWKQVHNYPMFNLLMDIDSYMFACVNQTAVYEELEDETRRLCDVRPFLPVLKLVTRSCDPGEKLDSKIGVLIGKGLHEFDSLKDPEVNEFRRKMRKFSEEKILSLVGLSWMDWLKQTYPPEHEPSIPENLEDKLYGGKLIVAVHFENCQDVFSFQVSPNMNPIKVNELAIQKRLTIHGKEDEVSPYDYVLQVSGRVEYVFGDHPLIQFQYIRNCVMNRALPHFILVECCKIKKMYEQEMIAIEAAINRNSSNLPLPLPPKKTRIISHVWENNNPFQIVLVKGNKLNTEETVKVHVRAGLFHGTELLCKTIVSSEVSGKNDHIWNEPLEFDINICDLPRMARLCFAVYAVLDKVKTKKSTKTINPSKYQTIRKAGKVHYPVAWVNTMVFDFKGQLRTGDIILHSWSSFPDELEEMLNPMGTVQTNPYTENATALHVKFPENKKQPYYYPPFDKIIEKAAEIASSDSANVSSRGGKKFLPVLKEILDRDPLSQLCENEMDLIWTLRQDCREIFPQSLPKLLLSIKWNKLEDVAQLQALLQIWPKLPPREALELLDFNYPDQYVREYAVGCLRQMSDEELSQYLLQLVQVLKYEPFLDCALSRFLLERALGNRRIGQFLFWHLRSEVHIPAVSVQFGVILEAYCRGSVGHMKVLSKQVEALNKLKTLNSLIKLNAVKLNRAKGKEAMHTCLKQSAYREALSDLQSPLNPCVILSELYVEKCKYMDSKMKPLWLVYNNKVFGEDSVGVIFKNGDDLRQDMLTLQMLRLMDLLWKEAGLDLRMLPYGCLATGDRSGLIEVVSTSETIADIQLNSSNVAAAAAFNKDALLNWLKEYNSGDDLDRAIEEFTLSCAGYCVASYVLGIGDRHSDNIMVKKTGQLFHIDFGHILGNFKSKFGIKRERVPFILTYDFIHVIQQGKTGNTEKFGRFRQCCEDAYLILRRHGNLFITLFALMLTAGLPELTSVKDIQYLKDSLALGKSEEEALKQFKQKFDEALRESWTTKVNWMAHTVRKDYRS
T2 sequence (P27986 whole entry, further chain): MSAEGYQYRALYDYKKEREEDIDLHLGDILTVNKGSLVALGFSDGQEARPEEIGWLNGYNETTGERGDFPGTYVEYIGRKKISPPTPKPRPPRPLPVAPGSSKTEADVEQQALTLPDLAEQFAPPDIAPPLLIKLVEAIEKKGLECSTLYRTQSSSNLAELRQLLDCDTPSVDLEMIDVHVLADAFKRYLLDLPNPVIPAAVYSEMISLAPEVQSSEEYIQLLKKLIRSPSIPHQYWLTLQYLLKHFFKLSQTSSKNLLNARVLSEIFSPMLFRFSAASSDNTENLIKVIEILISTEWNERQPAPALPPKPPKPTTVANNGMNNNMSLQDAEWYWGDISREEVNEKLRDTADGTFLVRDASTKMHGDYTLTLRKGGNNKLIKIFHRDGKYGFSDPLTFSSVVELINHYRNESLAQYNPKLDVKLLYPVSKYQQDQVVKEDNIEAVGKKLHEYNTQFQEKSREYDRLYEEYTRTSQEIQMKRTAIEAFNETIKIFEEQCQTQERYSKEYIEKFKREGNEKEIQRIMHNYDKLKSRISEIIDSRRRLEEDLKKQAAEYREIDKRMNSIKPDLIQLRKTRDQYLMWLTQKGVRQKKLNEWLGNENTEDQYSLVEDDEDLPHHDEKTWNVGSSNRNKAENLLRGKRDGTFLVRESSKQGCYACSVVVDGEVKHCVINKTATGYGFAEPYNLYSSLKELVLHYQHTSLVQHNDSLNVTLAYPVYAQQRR
Description: as §1, §2, §3

PI3Kγ = target: T3, PI3Kγ (Homo sapiens, UniProt P48736); assay: PI3K kinases inhibition in vitro (ADP-Glo), PI3Kγ
T3 construct: purchased Merck Millipore
T3 sequence (P48736 whole entry): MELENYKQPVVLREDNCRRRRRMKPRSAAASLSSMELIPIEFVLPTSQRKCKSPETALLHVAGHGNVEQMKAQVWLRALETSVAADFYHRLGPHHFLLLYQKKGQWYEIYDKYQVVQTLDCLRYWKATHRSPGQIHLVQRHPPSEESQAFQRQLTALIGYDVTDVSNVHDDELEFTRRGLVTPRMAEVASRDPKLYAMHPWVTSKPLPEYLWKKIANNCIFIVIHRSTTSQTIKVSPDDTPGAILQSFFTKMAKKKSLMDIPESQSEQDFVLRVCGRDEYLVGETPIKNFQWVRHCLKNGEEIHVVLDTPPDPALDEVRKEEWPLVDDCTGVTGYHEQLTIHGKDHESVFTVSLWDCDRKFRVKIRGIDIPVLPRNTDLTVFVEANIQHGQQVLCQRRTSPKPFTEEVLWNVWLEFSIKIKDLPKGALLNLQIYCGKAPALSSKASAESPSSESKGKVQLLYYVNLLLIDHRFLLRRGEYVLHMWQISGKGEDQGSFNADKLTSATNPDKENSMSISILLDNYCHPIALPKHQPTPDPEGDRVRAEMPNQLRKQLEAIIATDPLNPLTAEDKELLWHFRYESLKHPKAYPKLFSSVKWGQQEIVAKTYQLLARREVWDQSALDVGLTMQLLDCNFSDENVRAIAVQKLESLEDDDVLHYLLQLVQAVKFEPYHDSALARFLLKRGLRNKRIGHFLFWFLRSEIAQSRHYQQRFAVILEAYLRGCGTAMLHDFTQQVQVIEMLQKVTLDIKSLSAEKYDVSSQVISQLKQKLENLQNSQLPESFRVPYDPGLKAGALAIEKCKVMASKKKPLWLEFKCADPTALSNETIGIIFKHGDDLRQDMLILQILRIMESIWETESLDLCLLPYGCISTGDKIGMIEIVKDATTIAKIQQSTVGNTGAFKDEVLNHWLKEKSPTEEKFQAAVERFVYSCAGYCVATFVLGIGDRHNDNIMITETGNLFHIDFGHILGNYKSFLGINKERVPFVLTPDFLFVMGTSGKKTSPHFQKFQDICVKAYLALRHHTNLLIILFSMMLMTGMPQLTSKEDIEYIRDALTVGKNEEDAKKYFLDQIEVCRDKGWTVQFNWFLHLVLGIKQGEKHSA
Description: as §1, §2, §3

PI3Kα = target: T4, PI3Kα (Homo sapiens, UniProt P42336); assay: PI3K kinases inhibition in vitro (ADP-Glo), PI3Kα
T4 construct: purchased Carna Biosciences
T4 sequence (P42336 whole entry): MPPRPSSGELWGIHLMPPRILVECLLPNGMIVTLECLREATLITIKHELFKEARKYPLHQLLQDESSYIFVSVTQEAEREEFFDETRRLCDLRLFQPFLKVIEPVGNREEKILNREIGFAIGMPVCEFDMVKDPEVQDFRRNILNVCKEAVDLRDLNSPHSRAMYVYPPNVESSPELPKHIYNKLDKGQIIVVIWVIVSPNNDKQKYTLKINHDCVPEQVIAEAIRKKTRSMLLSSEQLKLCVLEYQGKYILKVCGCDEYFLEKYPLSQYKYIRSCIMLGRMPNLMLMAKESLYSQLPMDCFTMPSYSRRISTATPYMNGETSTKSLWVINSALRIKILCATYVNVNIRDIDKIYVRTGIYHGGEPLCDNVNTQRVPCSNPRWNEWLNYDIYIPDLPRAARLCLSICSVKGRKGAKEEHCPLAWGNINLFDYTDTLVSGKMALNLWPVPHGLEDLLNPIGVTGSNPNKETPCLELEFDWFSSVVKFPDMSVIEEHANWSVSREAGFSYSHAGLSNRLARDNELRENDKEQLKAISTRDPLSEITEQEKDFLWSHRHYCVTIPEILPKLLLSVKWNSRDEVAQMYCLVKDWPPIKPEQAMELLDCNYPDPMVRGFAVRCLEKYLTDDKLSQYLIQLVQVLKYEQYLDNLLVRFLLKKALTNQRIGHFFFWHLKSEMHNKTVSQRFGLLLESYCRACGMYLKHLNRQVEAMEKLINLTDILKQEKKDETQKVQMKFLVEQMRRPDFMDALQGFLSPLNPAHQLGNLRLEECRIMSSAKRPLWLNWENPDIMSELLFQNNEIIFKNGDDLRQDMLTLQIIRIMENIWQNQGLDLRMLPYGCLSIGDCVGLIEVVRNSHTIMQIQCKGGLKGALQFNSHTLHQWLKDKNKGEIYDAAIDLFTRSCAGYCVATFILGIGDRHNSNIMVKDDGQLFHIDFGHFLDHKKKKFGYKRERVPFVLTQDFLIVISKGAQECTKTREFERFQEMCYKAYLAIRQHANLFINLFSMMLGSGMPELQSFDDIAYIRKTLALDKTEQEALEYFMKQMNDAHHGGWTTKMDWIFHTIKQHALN
T4 sequence (P27986 whole entry partner): as the sequence (P27986 whole entry, further chain) above
Description: as §1, §2, §3

[1] = averaged, recombinant kinase, 25° C., 1 h, PIP2 30 μM, read-out: PI3Kδ IC50
[2] = averaged, recombinant kinase, 30° C., 1 h, PIP2 50 μM, read-out: PI3Kβ IC50
[3] = averaged, recombinant kinase, 30° C., 1 h, PIP2 50 μM, read-out: PI3Kγ IC50

T1 sequence (O00329 whole entry): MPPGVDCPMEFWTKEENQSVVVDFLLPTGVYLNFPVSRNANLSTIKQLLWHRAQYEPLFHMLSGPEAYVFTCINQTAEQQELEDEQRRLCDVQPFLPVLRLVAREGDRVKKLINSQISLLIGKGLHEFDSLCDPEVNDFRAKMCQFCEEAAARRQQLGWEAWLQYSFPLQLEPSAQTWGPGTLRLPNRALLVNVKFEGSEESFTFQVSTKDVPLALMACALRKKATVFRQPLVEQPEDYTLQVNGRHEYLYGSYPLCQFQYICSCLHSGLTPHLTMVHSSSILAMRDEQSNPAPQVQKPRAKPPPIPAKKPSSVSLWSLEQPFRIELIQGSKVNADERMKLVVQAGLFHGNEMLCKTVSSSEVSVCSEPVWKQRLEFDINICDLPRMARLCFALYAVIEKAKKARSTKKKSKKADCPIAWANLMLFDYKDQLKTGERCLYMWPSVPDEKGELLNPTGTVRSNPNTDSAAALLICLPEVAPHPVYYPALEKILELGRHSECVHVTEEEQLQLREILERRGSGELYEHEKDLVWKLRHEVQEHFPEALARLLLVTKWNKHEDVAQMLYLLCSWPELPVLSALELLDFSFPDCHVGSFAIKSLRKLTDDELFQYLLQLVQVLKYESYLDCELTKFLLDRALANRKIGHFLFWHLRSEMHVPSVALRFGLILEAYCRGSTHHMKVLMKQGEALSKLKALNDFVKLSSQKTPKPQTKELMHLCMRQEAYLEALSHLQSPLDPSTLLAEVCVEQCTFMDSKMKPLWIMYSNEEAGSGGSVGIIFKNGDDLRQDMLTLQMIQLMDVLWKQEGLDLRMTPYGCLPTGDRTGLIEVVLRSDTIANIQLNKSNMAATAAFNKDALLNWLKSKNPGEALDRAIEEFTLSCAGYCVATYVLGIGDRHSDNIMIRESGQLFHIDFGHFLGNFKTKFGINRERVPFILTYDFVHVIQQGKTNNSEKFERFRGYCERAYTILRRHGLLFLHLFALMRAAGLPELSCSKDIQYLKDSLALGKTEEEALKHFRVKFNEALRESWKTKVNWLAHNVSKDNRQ
T1 sequence (P27986 whole entry, further chain): as the sequence (P27986 whole entry, further chain) above

Compound | IC50 (PI3Kδ; [1]) [nM] | IC50 (PI3Kβ; [2]) [nM] | IC50 (PI3Kγ; [3]) [nM] | IC50 (PI3Kα) [nM] | IC50 (PI3Kδ) [nM] | IC50 (PI3Kβ) [nM] | IC50 (PI3Kγ) [nM]
O=C(C1CC1)N1CCN(Cc2cc3nc(-c4cccc5[nH]ccc45)cc(N4CCOCC4)n3n2)CC1 [Example 1, 2-((4-(cyclopropanecarbonyl)piperazin-1-yl)methyl)-5-(1H-indol-4-yl)-7-(morpholin-4-yl)pyrazolo[1,5-a]pyrimidine] | < 100 | > 1000 | 100 to 1000 | > 1000 |  |  | 
CN(C)C1CCN(Cc2cc3nc(-c4cccc5[nH]ccc45)cc(N4CCOCC4)n3n2)CC1 [Example 5, 2-((4-(dimethylamino)piperidin-1-yl)methyl)-5-(1H-indol-4-yl)-7-(morpholin-4-yl)pyrazolo[1,5-a]-pyrimidine] |  |  |  | > 1000 | < 100 | > 1000 | > 1000
CC(C)(O)C1CCN(Cc2cc3nc(-c4c(F)ccc5[nH]ccc45)cc(N4CCOCC4)n3n2)CC1 [Example 7, 2-((4-(2-hydroxypropan-2-yl)-piperidin-1-yl)methyl)-5-(5-fluoro-1H-indol-4-yl)-7-(morpholin-4-yl)-pyrazolo[1,5-a]pyrimidine] | < 100 | > 1000 | > 1000 | > 1000 |  |  | 
CC(C)(C(N)=O)N1CCN(Cc2cc3nc(-c4cccc5[nH]ccc45)cc(N4CCOCC4)n3n2)CC1 [Example 9, 2-(4-((5-(1H-indol-4-yl)-7-(morpholin-4-yl)pyrazolo[1,5-a]-pyrimidin-2-yl)methyl)piperazin-1-yl)-2-methyl-propionamide] |  |  |  | > 1000 | < 100 | > 1000 | > 1000
CC(C)(C(N)=O)N1CCN(Cc2cc3nc(-c4c(F)ccc5[nH]ccc45)cc(N4CCOCC4)n3n2)CC1 [Example 10, 2-(4-((5-(5-fluoro-1H-indol-4-yl)-7-(morpholin-4-yl)pyrazolo[1,5-a]-pyrimidin-2-yl)methyl)piperazin-1-yl)-2-methyl-propionamide] | < 100 | > 1000 | > 1000 | > 1000 |  |  | 
CN(C)C1CCN(Cc2cc3nc(-c4c(F)ccc5[nH]ccc45)cc(N4CCOCC4)n3n2)CC1 [Example 13, 2-((4-(dimethylamino)piperidin-1-yl)methyl)-5-(5-fluoro-1H-indol-4-yl)-7-(morpholin-4-yl)pyrazolo[1,5-a]pyrimidine] | < 100 | > 1000 | > 1000 | > 1000 |  |  | 
CC(C)(C)N1CCN(Cc2cc3nc(-c4ccc(N)nc4)cc(N4CCOCC4)n3n2)CC1 [Example 16, 5-(2-aminopyridin-5-yl)-2-((4-tert-butylpiperazin-1-yl)methyl)-7-(morpholin-4-yl)pyrazolo[1,5-a]-pyrimidine] | < 100 | > 1000 | > 1000 | > 1000 |  |  | 
CC(C)(C)N1CCN(Cc2cc3nc(-c4cnc(N)nc4)cc(N4CCOCC4)n3n2)CC1 [Example 17, 5-(2-aminopyrimidin-5-yl)-2-((4-tert-butylpiperazin-1-yl)methyl)-7-(morpholin-4-yl)pyrazolo[1,5-a]-pyrimidine] | < 100 | > 1000 | > 1000 | > 1000 |  |  | 
CC(C)(O)C1CCN(Cc2cc3nc(-c4ccc(N)nc4)cc(N4CCOCC4)n3n2)CC1 [Example 19, 5-(2-aminopyridin-5-yl)-2-((4-(2-hydroxypropan-2-yl)piperidin-1-yl)methyl)-7-(morpholin-4-yl)-pyrazolo[1,5-a]pyrimidine] | < 100 | > 1000 | > 1000 | > 1000 |  |  | 
c1cc(-c2cc(N3CCOCC3)n3nc(CN4CCN(C5CC5)CC4)cc3n2)c2cc[nH]c2c1 [Example 20, 2-((4-cyclopropyl-piperazin-1-yl)-methyl)-5-(1H-indol-4-yl)-7-(morpholin-4-yl)pyrazolo[1,5-a]-pyrimidine] |  |  |  | > 1000 | < 100 | > 1000 | 
CCN1CCN(Cc2cc3nc(-c4cccc5[nH]ccc45)cc(N4CCOCC4)n3n2)CC1 [Example 22, 2-((4-ethylpiperazin-1-yl)methyl)-5-(1H-indol-4-yl)-7-(morpholin-4-yl)pyrazolo[1,5-a]pyrimidine] |  |  |  | > 1000 | < 100 | > 1000 | > 1000
c1cc(-c2cc(N3CCOCC3)n3nc(CN4CC(N5CCOCC5)C4)cc3n2)c2cc[nH]c2c1 [Example 25, 5-(1H-indol-4-yl)-2-((3-(morpholin-4-yl)azetidin-1-yl)methyl)-7-(morpholin-4-yl)pyrazolo[1,5-a]-pyrimidine] |  |  |  | > 1000 | < 100 | > 1000 | > 1000
CC(C)(C)C1CCN(Cc2cc3nc(-c4cccc5[nH]ccc45)cc(N4CCOCC4)n3n2)CC1 [Example 28, 2-((4-tert-butylpiperidin-1-yl)-methyl)-5-(1H-indol-4-yl)-7-(morpholin-4-yl)pyrazolo[1,5-a]-pyrimidine] |  |  |  | > 1000 | < 100 | > 1000 | > 1000
CC(C)(O)C1CCN(Cc2cc3nc(-c4cncc5[nH]ccc45)cc(N4CCOCC4)n3n2)CC1 [Example 29, 5-(1H-6-azaindol-4-yl)-2-((4-(2-hydroxypropan-2-yl)piperidin-1-yl)methyl)-7-(morpholin-4-yl)-pyrazolo[1,5-a]pyrimidine] | < 100 | > 1000 |  | > 1000 |  |  | 
CC(C)(C)N1CCN(Cc2cc3nc(-c4cncc5[nH]ccc45)cc(N4CCOCC4)n3n2)CC1 [Example 30, 5-(1H-6-azaindol-4-yl)-2-((4-tert-butylpiperazin-1-yl)methyl)-7-(morpholin-4-yl)pyrazolo[1,5-a]-pyrimidine] |  |  |  | > 1000 | < 100 | > 1000 | > 1000
O=S1(=O)CCN(C2CN(Cc3cc4nc(-c5cccc6[nH]ccc56)cc(N5CCOCC5)n4n3)C2)CC1 [Example 31, 5-(1H-indol-4-yl)-2-((3-(1,1-dioxothiomorpholin-4-yl)azetidin-1-yl)methyl)-7-(morpholin-4-yl)-pyrazolo[1,5-a]pyrimidine] |  |  |  | > 1000 | < 100 | > 1000 | > 1000
CC(C)(C)N1CCN(Cc2cc3nc(-c4ccnc5[nH]ccc45)cc(N4CCOCC4)n3n2)CC1 [Example 32, 5-(1H-7-azaindol-4-yl)-2-((4-tert-butylpiperazin-1-yl)methyl)-7-(morpholin-4-yl)pyrazolo[1,5-a]-pyrimidine] | < 100 | > 1000 |  | > 1000 |  |  | 
CC(C)(O)C1CCN(Cc2cc3nc(-c4ccnc5[nH]ccc45)cc(N4CCOCC4)n3n2)CC1 [Example 33, 5-(1H-7-azaindol-4-yl)-2-((4-(2-hydroxypropan-2-yl)piperidin-1-yl)methyl)-7-(morpholin-4-yl)-pyrazolo[1,5-a]pyrimidine] | < 100 | > 1000 | > 1000 | > 1000 |  |  | 
Fc1ccc2[nH]ccc2c1-c1cc(N2CCOCC2)n2nc(CN3CCN(C4COC4)CC3)cc2n1 [Example 35] | < 100 | > 1000 | > 1000 | > 1000 |  |  | 
CC(C)(O)C1CCN(Cc2cc3nc(-n4c(C(F)F)nc5ccccc54)cc(N4CCOCC4)n3n2)CC1 [Example 51, 5-(2-(difluoromethyl)benzimidazol-1-yl)-2-((4-(2-hydroxypropan-2-yl)piperidin-1-yl)methyl)-7-(morpholin-4-yl)pyrazolo[1,5-a]-pyrimidine] | < 100 | > 1000 | > 1000 | > 1000 |  |  | 
CC(C)(C)N1CCN(Cc2cc3nc(-n4c(C(F)F)nc5cnccc54)cc(N4CCOCC4)n3n2)CC1 [Example 62, 5-(2-(difluoromethyl)imidazo[4,5-c]pyridin-1-yl)-2-((4-tert-butylpiperazin-1-yl)methyl)-7-(morpholin-4-yl)pyrazolo[1,5-a]-pyrimidine] | 100 to 1000 | > 1000 | > 1000 | > 1000 |  |  | 
FC(F)c1nc2ccccc2n1-c1cc(N2CCOCC2)n2nc(CN3CC(N4CCOCC4)C3)cc2n1 [Example 64, 5-(2-(difluoromethyl)benzimidazol-1-yl)-2-((3-(morpholin-4-yl)-azetidin-1-yl)methyl)-7-(morpholin-4-yl)pyrazolo[1,5-a]pyrimidine] | < 100 | > 1000 | > 1000 | 100 to 1000 |  |  | 
